This note sets out measurements from PMC3472974, “The Bite of the Honeybee: 2-Heptanone Secreted from Honeybee Mandibles during a Bite Acts as a Local Anaesthetic in Insects and Mammals” (PLoS ONE, 2012).

≈ marks a conversion by molar mass, not a printed value. Marks after values point to notes of the source that are not given here.

One series has as its target T1, hNav1.2 channels (Homo sapiens, UniProt Q99250).
T1 construct: expressed in transfected cells; host or cells: CHO-K1 (ATCC CCL-61)
Description: Patch-clamp (PatchXpress 7000A) on transfected CHO cells, hNav1.2. The format is cell-based. To be noted: for IC50: CHO cells, n = 6, mean ± SEM, 2-H exposure limited to 3 min; for times less active than lidocaine: hNav1.2. The text has this:
To test whether 2-H can act by blocking VGNaCs, the PatchXpress 7000A was used. Mammalian CHO (Chinese hamster ovary) transfected with ion hNav1.2 and hNav1.6 channels cDNAs (SCN2A and SCN8A genes) were exposed to 2-H under both tonic and phasic conditions. The mammalian CHO-K1 epithelial embryonic cell line (ATCC number CCL-61) from Cricetulus griseus was obtained from ATCC, Manassas, VA. CHO-K1 cells were transfected with either hNav1.2 or hNav1.6 channel cDNA (SCN2A and SCN8A genes, respectively) and were exposed to 2-H under both tonic and phasic conditions.
The effects of 2-H were evaluated on hNav1.2 at 0.73, 1.46, 2.19, and 2.92 mg/mL and on hNav1.6 channels at 0.1, 0.36, 0.73, and 1.46 mg/mL, with each concentration tested in at least six cells (n = 6). Cells were exposed to each concentration of 2-H and measurements of the inward current were obtained within the first 3 min of exposure. […] Since the PatchXpress has open cell chambers where the testing occurs, there is no way to hermetically seal the experiment.
Based on this analysis, we estimated the IC50.
(The patch-clamp technique gives a direct electrical read-out from membranes.)

Another series has as its system wax moth larvae (WML). Description: GC-MS quantification of 2-H in wax moth larvae bitten by honeybees. Format: in vivo, Galleria mellonella. To be noted: extracted after full recovery, n = 10. The text has this:
We measured the 2-H content of the following types of samples: a) isolated honeybee mandibular glands (n = 30); b) wax moth larvae (WML; body weight of around 0.01 g) that had been bitten by honeybees (n = 30) –2-H extracted immediately after paralysis; c) WML that had been bitten by honeybees (n = 10) –2-H extracted after full recovery; d) non-bitten WML (controls, n = 10).
To optimize the detection of 2-H, all samples were 1) treated with liquid nitrogen in order to stop any enzymatic process and ensure complete lyses of cell walls and then 2) extracted with ethanol. The extracts were centrifuged, filtered, and stored at −20°C until analysis.
Chromatographic analyses were carried out on a Hewlett Packard 6890 gas chromatographic model hyphenated to a Hewlett Packard 5973 mass selective detector using electron impact (70 eV) as the ionization source, further equipped with an Agilent 6890 autosampler. An HP 5MS (30 m×0.25 mm; film thickness 0.25 µm) column was used for the separations. Helium was used as the carrier gas (flow 0.8 ml/min). […] Thus, under the above chromatographic conditions, the Rt of 2-H was 8.47 min and the ions monitored at EI (70eV, full scan) were m/z 43, 58, 71, 85, 99 and 114. Quantification, however, was performed at Selected Ion Monitoring (SIM) mode and the ions were monitored at m/z 58 and 71. […]

Series [1] deals with isolated rat sciatic nerve. Kind of series: tissue or blood. The text has this:
The ex vivo studies used both male and female rats weighing between 230 and 250 g. Animals were sacrificed using light anaesthesia with CO2 and cervical dislocation. The sciatic nerve of the rat, consisting of 27,000 sciatic nerve fibres, was isolated in a three-chamber recording bath (Fig. 5b). The sciatic nerves were dissected from the spinal cord to the knee, immersed in oxygenated (O2, 100%) saline solution and cleaned. The composition of the saline was (in mmoles/L): 136 NaCl, 11 glucose, 4.7 KCl, 2.4 CaCl2, 1.1 MgCl2, 1 NaHCO3, 10 HEPES, pH = 7.2). All experiments were performed at a constant temperature, 26.0±1.0°C. […] The nerve was mounted in a three-chambered recording bath made of Plexiglas, which is described elsewhere, [30]. The recording bath consisted of the recording (R in Fig. 5b), perfusion (P) and stimulating (S) chambers, each with a volume of 12 mL. The nCAP (Fig. 5a) was generated by stimulating (1 Hz) the part of the nerve in the stimulating chamber and was recorded in the recording chamber every second using standard electrophysiological methods. The nCAP was monitored throughout the experiment as an indication of the vitality of the nerve fibres in the recording bath. […] Immediately after the nCAP was eliminated, the saline+compound was removed and the nerve was washed out. Then, recovery of the nCAP in normal stagnant saline was monitored for 24 h. It is worth noting that the recording bath is designed in such a way that the chambers with the saline and 2-H (the nerves and the recording electrodes) was shielded from the air by using the cover (c in Fig. 5b) to avoid evaporation of the volatile 2-H. The saline with 2-H was added through a small diameter opening on the cover.
For further data analysis, the amplitude of the nCAPs, estimated from baseline to peak (Fig. 5), were measured at a specific time (every 1.0 s, 1.0 min or 1.0 h) and were expressed as a percentage of the amplitude of the nCAP at t = 0 (which was considered to be 100%). In the neuropharmacological experiments, time t = 0 was considered the time before application of the compound under investigation. […] The data were fitted in the program GraphPad Prism 5.0 using a one-phase exponential decay equation for the IC50. Data were analyzed by one-way ANOVA and Bonferroni’s post hoc tests, when required. Significance was determined using Students t-test or ANOVA as appropriate (p<0.05).

T1 sequence (Q99250 whole entry): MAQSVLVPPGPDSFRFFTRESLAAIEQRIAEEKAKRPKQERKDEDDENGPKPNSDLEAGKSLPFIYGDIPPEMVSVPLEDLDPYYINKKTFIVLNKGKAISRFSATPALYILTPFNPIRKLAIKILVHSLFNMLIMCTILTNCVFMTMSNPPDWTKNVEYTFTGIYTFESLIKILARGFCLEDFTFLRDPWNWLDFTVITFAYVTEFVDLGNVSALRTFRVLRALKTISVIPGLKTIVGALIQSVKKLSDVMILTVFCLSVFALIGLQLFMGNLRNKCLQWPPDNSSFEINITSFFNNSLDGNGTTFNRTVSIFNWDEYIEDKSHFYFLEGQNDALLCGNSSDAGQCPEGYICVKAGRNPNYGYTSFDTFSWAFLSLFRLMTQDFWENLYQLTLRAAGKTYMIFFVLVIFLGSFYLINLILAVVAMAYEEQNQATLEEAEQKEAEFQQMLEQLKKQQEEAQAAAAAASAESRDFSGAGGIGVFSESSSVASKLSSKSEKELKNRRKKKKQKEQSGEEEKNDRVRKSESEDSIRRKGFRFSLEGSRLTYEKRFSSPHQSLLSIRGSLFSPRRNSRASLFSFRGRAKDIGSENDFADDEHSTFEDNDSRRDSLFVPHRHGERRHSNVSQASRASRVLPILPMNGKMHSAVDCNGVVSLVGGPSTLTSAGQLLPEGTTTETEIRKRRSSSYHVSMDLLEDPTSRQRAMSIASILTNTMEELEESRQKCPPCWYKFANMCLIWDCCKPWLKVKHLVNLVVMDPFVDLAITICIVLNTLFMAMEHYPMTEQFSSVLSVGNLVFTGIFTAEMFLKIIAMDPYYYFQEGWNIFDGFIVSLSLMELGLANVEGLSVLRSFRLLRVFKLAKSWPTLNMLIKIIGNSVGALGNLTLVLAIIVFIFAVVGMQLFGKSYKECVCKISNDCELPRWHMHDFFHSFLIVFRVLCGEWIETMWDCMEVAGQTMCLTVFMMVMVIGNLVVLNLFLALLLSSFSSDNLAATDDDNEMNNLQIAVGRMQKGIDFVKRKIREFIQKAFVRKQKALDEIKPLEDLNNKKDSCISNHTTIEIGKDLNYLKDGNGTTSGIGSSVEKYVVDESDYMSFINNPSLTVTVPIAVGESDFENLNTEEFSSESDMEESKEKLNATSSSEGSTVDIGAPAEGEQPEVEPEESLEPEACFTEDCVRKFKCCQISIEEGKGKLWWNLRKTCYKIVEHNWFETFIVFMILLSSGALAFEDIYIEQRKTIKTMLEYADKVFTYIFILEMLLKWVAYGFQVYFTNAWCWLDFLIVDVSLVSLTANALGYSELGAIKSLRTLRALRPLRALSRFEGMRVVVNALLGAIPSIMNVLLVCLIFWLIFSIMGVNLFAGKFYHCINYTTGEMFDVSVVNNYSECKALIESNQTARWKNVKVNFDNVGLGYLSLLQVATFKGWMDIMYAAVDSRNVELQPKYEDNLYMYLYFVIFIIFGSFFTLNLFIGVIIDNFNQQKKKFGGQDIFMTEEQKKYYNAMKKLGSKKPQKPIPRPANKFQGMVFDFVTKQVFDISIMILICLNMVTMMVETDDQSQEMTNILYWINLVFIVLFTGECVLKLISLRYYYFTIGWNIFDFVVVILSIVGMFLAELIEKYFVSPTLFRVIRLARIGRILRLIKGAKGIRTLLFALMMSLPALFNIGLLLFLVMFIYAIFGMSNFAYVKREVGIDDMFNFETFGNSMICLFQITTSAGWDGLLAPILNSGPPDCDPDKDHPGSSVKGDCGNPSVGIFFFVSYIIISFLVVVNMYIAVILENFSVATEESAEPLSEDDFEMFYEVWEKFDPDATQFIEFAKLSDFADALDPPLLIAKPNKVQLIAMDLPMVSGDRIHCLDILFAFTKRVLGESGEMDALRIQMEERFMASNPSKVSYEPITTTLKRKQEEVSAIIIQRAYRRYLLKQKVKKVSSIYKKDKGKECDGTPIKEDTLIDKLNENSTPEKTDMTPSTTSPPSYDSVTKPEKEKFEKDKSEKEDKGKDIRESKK

As for `CCCCCC(C)=O` [2-H, 2-heptanone], the IC50 is 6.57 mM against hNav1.2 channels (Phasic Experiment); 9.02 mM against hNav1.2 channels (Tonic Experiment); 469 µg/mL (≈ 4.11 mM) in series [1] (Rattus norvegicus, read-out: IC50 from concentration-response curves of the IT0 values). Besides, the “times less active than lidocaine” value is recorded as 7.50 times on hNav1.2 channels (phasic experiments) and 3.97 times on hNav1.2 channels (tonic experiments). Moreover, the “2-H detected in fully-recovered WML” value in the series with wax moth larvae (WML) was “no 2-H”. In addition, the “neurotoxic action in 24 h monitoring of nerve vitality” value in series [1] is reported as “no neurotoxic action”. The “IT0 (time required for 100% inhibition of the nCAP)” value amounted to 517.5 ± 25.62 s in series [1] (1.41 mg/mL), 358.8 ± 18.07 s in series [1] (2.28 mg/mL), 221.88 ± 7.32 s in series [1] (3.41 mg/mL) and 195 ± 12 s in series [1] (10 mg/mL). For the same compound, the “IT50 (time to inhibit nCAP amplitude to 50% of control)” value in series [1] (1.41 mg/mL) turned out to be 109.7 ± 2.87 s; in series [1] (2.28 mg/mL) it was 108.9 ± 0.22 s; in series [1] (3.41 mg/mL) it was 39.14 ± 4.84 s; in series [1] (10 mg/mL) it was 22.3 ± 1.1 s. In addition, the “time to complete elimination of the nCAP” value in series [1] (3.41 mg/mL) was found to be 221.88 s. Also, the IT0 in series [1] (Table 3, 3.41 mg/mL, unit not given in Table 3, s) was 221.88±7.32^a seconds. This compound gave an IT50 in series [1] (Table 3, 3.41 mg/mL, unit not given in Table 3, seconds per Table 2) of 39.14 ± 4.84 s. The “recovery of nCAP amplitude after wash with normal saline” value in series [1] (after elimination of nCAP, remained at this level for at least 24 h, n = 8) was found to be 89.51%.
